Measurements from US20240400621A1, “PEPTIDES FOR METABOLIC SYNDROME” (ALPARIS, S.A. de C.V., priority 2021, published 2024).
Like-named read-outs stand apart in the source and are kept apart here. Where no end group is shown, it is not given here.

Experiments:
hTLR2 = target: T1, hTLR2 (Homo sapiens, UniProt O60603); assay: hTLR2 stimulation in HEK-Blue hTLR2 cells (NF-κβ/SEAP reporter, QUANTI-Blue); format: cell-based
T1 construct: expressed in transfected cells; host or cells: HEK-Blue hTLR2 cells
T1 sequence (O60603 21-784): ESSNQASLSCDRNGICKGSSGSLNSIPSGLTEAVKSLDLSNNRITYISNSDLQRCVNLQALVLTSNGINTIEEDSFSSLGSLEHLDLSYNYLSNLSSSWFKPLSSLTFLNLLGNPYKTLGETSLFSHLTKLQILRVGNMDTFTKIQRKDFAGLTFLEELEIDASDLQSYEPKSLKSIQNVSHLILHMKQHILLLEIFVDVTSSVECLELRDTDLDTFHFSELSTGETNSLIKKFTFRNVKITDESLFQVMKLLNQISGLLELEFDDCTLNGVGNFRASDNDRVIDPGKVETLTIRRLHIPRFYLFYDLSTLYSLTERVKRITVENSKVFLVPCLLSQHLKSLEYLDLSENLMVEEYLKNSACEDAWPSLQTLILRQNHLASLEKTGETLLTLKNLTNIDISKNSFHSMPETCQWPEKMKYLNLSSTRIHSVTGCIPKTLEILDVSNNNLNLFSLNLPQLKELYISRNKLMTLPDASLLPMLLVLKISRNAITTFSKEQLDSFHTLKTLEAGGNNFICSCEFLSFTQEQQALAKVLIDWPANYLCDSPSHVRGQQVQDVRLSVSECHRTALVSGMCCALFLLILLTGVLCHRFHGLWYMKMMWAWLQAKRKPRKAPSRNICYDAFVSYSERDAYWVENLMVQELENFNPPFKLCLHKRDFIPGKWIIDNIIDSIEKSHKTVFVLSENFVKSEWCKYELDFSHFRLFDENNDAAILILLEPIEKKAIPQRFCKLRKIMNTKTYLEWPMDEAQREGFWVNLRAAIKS
Experimental: The analysis of the biological activity of the protein of SEQ ID NO. 1 was performed via an in vitro Toll-like receptors (TLRs) recognition assay. The HEK-Blue hTLR2 cell line expressing the hTLR2 receptor was used, whose stimulation activates the NF-Kβ factor, which in turn induces the production of the reporter protein, secreted embryonic alkaline phosphatase (SEAP). The SEAP levels are quantified by a colorimetric method with the reagent QUANTI-Blue and correspond to hTLR2 stimulation levels. The HEK-Blue hTLR2 cell line was thawed and propagated to make a master cell bank. From this bank, a vial was thawed to check the correct growth of the cell line and the absence of mycoplasma contamination. The cells of the thawed vial were propagated to make a working cell bank and continue the subcultures to mount the activity assay of SEQ ID NO. 1. This consisted of a series of tests in which the cellular response was evaluated with different molecules to determine the most suitable conditions for the assay.
The determined EC50 for SEQ ID NO. 1 was 1147±211 ng/ml (35.1±6.4 nM).
The in vitro biological activity of SEQ ID NO:2, SEQ ID NO:3, SEQ ID NO:4, SEQ ID NO: 8, SEQ ID NO:9, SEQ ID NO: 10, SEQ ID NO:11, SEQ ID NO: 12, SEQ ID NO: 13, SEQ ID NO: 14, SEQ ID NO: 15, and SEQ ID NO:16 was tested via the stimulation of hTLR2 in the cultures of HEK-Blue hTLR2 cells in 96-well plates for 24 h. After collecting the supernatant, the plate was incubated with QUANTI-Blue at 37° C. for 1 h, and absorbance was measured at 620 nm.
To determine the EC50, the absorbance was plotted against the logarithm of protein concentration, and the data was adjusted to a dose-response sigmoidal ligand binding model with 4 parameters. The cell culture medium was used as a negative control, and PAM (synthetic triacylated lipopeptide (Pam3CSK4)) was used as a positive control.

IL-6 = IL-6 levels in mice fed a high-fat diet; format: in vivo, mice (C57BL/6JN); details: 12 weeks; animals fed DAG
Experimental: (§1) For all the in vivo testing, male mice of the C57BL/6JN strain between 8 to 10 weeks of age were used, housed in groups of 3 to 5 mice per cage with food and water ad libitum in ventilated racks, and whose microbiota were unified for 4 weeks.
(§2) The mice received either 200 μL of a phosphate buffer solution (PBS) at pH 7.5 (as a vehicle), or 200 μL of the PBS solution, with each of the intragastric treatments daily for 12 weeks. They were fed either a Normal Diet (DN, Harlan, Teklad 2018SX) with 18% of the calories coming from fat, or a High-Fat Diet (DAG, Research Diets, D12491), with 60% of the calories coming from fat.
(§3) All the mice were randomly divided into five experimental groups in order to study the effect of SEQ ID NO: 3 and SEQ ID NO: 2 correctly: • Group 1—Mice with DN that received 200 μl of PBS intragastrically. • Group 2—Mice with DAG that received 200 μl of PBS intragastrically. • Group 3—Mice with DAG that received 200 μl of PBS with SEQ ID NO: 3 intragastrically at a dose of: 2.5 μg/mouse. • Group 4—Mice with DAG that received 200 μl of PBS with SEQ ID NO: 2 intragastrically at a dose of 0.6 μg/mouse (high dose). • Group 5—Mice with DAG that received 200 μl of PBS with SEQ ID NO: 2 intragastrically at a dose of 0.2 μg/mouse (low dose).

mice fed a high-fat diet [1] = assay: Glucose tolerance test (GTT) in mice fed a high-fat diet; format: in vivo, mice (C57BL/6JN); details: 12 weeks; intragastric daily; SEQ ID NO: 3 2.5 μg/mouse, SEQ ID NO: 2 0.6 or 0.2 μg/mouse
Experimental: as §1
as §2, with “fat. […]” for “fat.”
The mice were subjected to fasting for 6 hours, and the baseline glucose values in the blood were determined using glucose test strips and a glucometer (Roche's ACCU-CHECK ACTIVE).
Next, the mice received an intraperitoneal injection of 1.8 mg of glucose per gram of body weight, and the blood glucose values were recorded at 15, 30, 60, and 120 minutes after administration.
FIGS. 19A and 19B show the area under the curve (AUC) of the glucose tolerance test of the mice, measured at week 0 and 12.

IL-1B = assay: Circulating IL-1B levels in mice fed a high-fat diet; format: in vivo, mice (C57BL/6JN); details: 12 weeks; versus DAG; including SEQ ID NO: 2 at low doses
Experimental: as §1
as §2, with “fat. […]” for “fat.”
(§4) To determine the effect of the peptides SEQ ID NO: 2 and SEQ ID NO: 3 in attenuating the inflammatory process in adipose tissue, the cellular infiltrate of the adipose tissue of the mice was quantified after they had been fed DAG.

adipose tissue = assay: Cellular infiltrate / inflammatory process in adipose tissue of mice fed a high-fat diet; format: in vivo, mice (C57BL/6JN)
Experimental: as §1, §2, §3, §4

leptin = assay: Leptin levels in mice fed a high-fat diet; format: in vivo, mice (C57BL/6JN); details: 12 weeks; compared to mice fed only DAG
Experimental: as §1, §2
as §3, with “(low dose). […]” for “(low dose).”

[2] = Body weight of mice on high-fat diet (DAG) with intragastric peptide for 12 weeks; format: in vivo, mice (C57BL/6JN)
Experimental: as §1, §2, §3
The animal weights and feed intakes were recorded weekly.
To determine the metabolic status of the animals before starting the experiment, weight, basal glucose levels, glucose tolerance, and insulin resistance were recorded.

insulin = assay: Insulin levels (secretion in response to glucose) in mice fed a high-fat diet; format: in vivo, mice (C57BL/6JN); details: 12 weeks; versus DAG group
Experimental: as §1, §2, §3
This means that the peptide SEQ ID NO: 3 improves insulin sensitivity, preventing insulin resistance from developing.

adiponectin = assay: Adiponectin levels in mice fed a high-fat diet; format: in vivo, mice (C57BL/6JN); details: 12 weeks; fall induced by DAG
Experimental: as §1, §2
as §3, with “(low dose). […]” for “(low dose).”

mice fed a high-fat diet [3] = assay: Insulin resistance test (PRI) in mice fed a high-fat diet; format: in vivo, mice (C57BL/6JN); details: 12 weeks; intragastric daily; SEQ ID NO: 3 2.5 μg/mouse, SEQ ID NO: 2 0.6 or 0.2 μg/mouse
Experimental: as §1
as §2, with “fat. […]” for “fat.”
The mice were subjected to fasting for 6 hours and the baseline glucose values were determined, as described above. Subsequently, the mice received an intraperitoneal injection of 1 mU of insulin per gram of body weight, and blood glucose values were recorded at 15, 30, 60, and 120 minutes after administration. The area under the curve (AUC) of the insulin resistance test was calculated considering the glucose decrease between time T0 and T15 using the absolute glucose values, as shown in FIGS. 20A and 20B.

TNFα = assay: Circulating TNFα levels in mice fed a high-fat diet; format: in vivo, mice (C57BL/6JN); details: 12 weeks; versus DAG; including SEQ ID NO: 2 at low doses
Experimental: as §1
as §2, with “fat. […]” for “fat.”
as §4

[4] = target: T2, human Toll-like receptor 2 (hTLR2) on HEK-Blue hTLR2 cells (human (printed as hTLR2), UniProt O60603 21-784); assay: cell-based or functional assay
T2 sequence (O60603 21-784): as above

[5] = Aggregation during ultrafiltration / buffer change; format: physicochemical
Text: The protein of SEQ ID NO. 1, expressed in recombinant form in this invention, contains a tag of six residues of histidine at the carboxyl terminal end, allowing it to be purified by immobilized metal cation affinity chromatography (IMAC). Purification was initially evaluated with the soluble fractions of the two strains that were used for recombinant production, obtained by enzymatic lysis and sonication. The first approach with the Ni-NTA Agarose resin allowed for the recovery of 6% of the SEQ ID NO. 1 with a purity of 50-80%. An FPLC Ákta Prime chromatographic system and an XK16/20 column packed with 13 mL of Chelating Sepharose Fast Flow-Ni^+2 resin were used for purification. A minimum imidazole concentration of 30 mM was defined in both the sample to be injected and the equilibrium buffer. Elution was performed with 500 mM imidazole at 6.5 mL/min, resulting in a minimum recovery of 80% of SEQ ID No. 1 with 82% purity. The ultrafiltration of the tangential flow of SEQ ID NO. 1 during the chromatography stage, in order to concentrate and change the buffer, negatively impacted protein quality. However, the dialysis of EQ ID NO.
However, the aggregation of SEQ ID NO. […] This was corroborated by the SDSPAGE analysis, in which the remaining protein in the soluble fraction presented fragments of lower molecular weight than that of SEQ ID NO. 1, but greater than 25 kDa. On the other hand, the precipitate turned out to be denatured SEQ ID NO. 1, but not degraded.
Finally, SEQ ID NO. 4 and SEQ ID NO.

[6] = target: T2, human Toll-like receptor 2 (hTLR2) on …; assay: cell-based or functional assay; remark: listed apart in the source

AMNAITGMQDYLFTVNSIRIRNERMMPPPIANPAAAK [SEQ ID NO: 2]
concentration from which hTLR2 is (significantly) stimulated (hTLR2; HEK-Blue hTLR2 cells, 24 h): 3.05 nM | concentration giving the best hTLR2 stimulation (hTLR2; HEK-Blue hTLR2 cells, 24 h): 305 nM | IL-6 levels (IL-6): dramatic decrease in IL-6 levels | glucose tolerance (AUC of GTT) versus DAG group (mice fed a high-fat diet [1]): improved glucose tolerance | circulating levels of IL-1B (IL-1B): prevented the increase in the circulating levels of IL-1B | cellular infiltrate of adipose tissue (adipose tissue; 12 weeks, versus DAG group): prevented the increase in cellular infiltrate induced by DAG | inflammatory process in adipose tissue (adipose tissue; SEQ ID NO:2 in high or low doses): attenuate the inflammatory process in adipose tissue | leptin secretion (leptin): decrease in leptin secretion | Average weight ([2]; 0 weeks (initial state), DAG + SEQ ID NO: 2 High dose group): 23.9 grams | Average weight ([2]; 0 weeks (initial state), DAG + SEQ ID NO: 2 Low dose group): 23.8 grams | Average weight ([2]; 12 weeks, DAG + SEQ ID NO: 2 High dose (0.6 μg/mouse) intragastric daily): 42 grams | Average weight ([2]; 12 weeks, DAG + SEQ ID NO: 2 Low dose (0.2 μg/mouse) intragastric daily): 40.2 grams | insulin secretion in response to glucose administration (insulin): tendency to decrease insulin secretion | adiponectin in circulation (adiponectin): tendency to prevent a fall of adiponectin | insulin sensitivity (AUC of insulin resistance test) versus DAG group (mice fed a high-fat diet [3]): improve insulin sensitivity | circulating levels of TNFα (TNFα): prevented the increase in the circulating levels

SEQ ID NO: 12: peptide generated by proteolysis, obtained with both trypsin and Lys-C (MQLPIETPANNPEESDEADQAPWTPMPLEIAFQGDRESVLK)
stimulation of hTLR2 (hTLR2): do not stimulate hTLR2

SEQ ID NO: 14: peptide of the Lys-C proteolysate, passes the 5 kDa ultrafiltration membrane (PYMGK)
stimulation of hTLR2 (hTLR2): do not stimulate hTLR2

SEQ ID NO: 16: peptide of the Lys-C proteolysate, retained at the 10 kDa cutoff (EQVFVQVSLNLVHFNQPK)
stimulation of hTLR2 (hTLR2): do not stimulate hTLR2

B1: protein of SEQ ID NO: 1 (AMUC_1100 of Akkermansia muciniphila without signal peptide, with Xa factor site and histidine tag) (ligand)
chain: MIVNSKRSELDKKISIAAKEIKSANAAEITPSRSSNEELEKELNRYAKAVGSLETAYKPFLASSALVPTTPTAFQNELKTFRDSLISSCKKKNILITDTSSWLGFQVYSTQAPSVQAASTLGFELKAINSLVNKLAECGLSKFIKVYRPQLPIETPANNPEESDEADQAPWTPMPLEIAFQGDRESVLKAMNAITGMQDYLFTVNSIRIRNERMMPPPIANPAAAKPAAAQPATGAASLTPADEAAAPAAPAIQQVIKPYMGKEQVFVQVSLNLVHFNQPKAQEPSEDIEGRHHHHHHDI
relative activation of NF-κβ (hTLR2; 10 μg/mL, 24 h stimulation of hTLR2, 60 min QUANTI-Blue, with respect to the culture medium): 16.6%±2.7 | EC50 [4]: 0.0351 µM | aggregation in ultrafiltration operations [5]: aggregation | EC50 [6]: 1.15 mg/L

AMNAITGMQDYLFTVNSIRIRNERMMPPPIANPAAAK [peptide SEQ ID NO: 2]
EC50 [4]: 0.0249 µM

B2: peptide SEQ ID NO: 4 (amino terminal domain of SEQ ID NO: 1) (peptide)
chain: IVNSKRSELDKKISIAAKEIKSANAAEITPSRSSNEELEKELNRYAKAVGSLETAYKPFLASSALVPTTPTAFQNELKTFRDSLISSCKKKNILITDTSSWLGFQVYSTQAPSVQAASTLGFELKAINSLVNKLAECGLSKFIKVYRPQ
concentration from which hTLR2 is (significantly) stimulated (hTLR2; HEK-Blue hTLR2 cells, 24 h): 38 nM | relative response compared to PAM (hTLR2; maximum concentration tested (305 nM)): 101% | EC50 [4]: 0.0659 µM | aggregation in ultrafiltration operations [5]: no visible aggregation
